Columns and labels:
[1] = tested on: mixed culture of 6 species of Gram negative bacteria; assay: Survivor plate count in commercial shampoo after challenge; type: cell-based
Description: A sample of a commercial shampoo preparation (without preservative) was divided into three portions and, to a first portion of this shampoo, the following preservative system was added: • 0.3% (w/w) of a 30% w/w solution of DCHB in propylene glycol (resulting in a concentration of 0.09% of active DCHB).
To a further portion of the unpreserved shampoo, 0.3% (w/w) propylene glycol alone was added to ensure any observed bactericidal effect was due to DCHB.
20g portions of the unpreserved shampoo and the shampoo with the above additions were inoculated with 0.4 ml of a mixed culture of 6 species of Gram negative bacteria (including an isolate from a contaminated shampoo) to give an initial inoculum level of 2.14 x 10^7 colony forming units per g.
The inoculated samples were mixed by Vortex mixer and stored at room temperature. At regular timed intervals after challenge the total number of survivors in each sample portion were determined by serial dilution and plate counting (Nutrient Agar, 32°C) with the following results: […]

Acute oral toxicity = conditions: rat, in vivo, rats
Source text: It is important that preservatives added to toiletry, household and pharmaceutical products have a low order of toxicity.

[2] = Antimicrobial activity in the presence of proteins; conditions: proteins such as serum and soluble collagen
[3] = Storage stability in shampoos, aqueous solutions and creams; type: physicochemical; conditions: 0.3% (w/w) in shampoos, 25°C, in the light and in dark, seven months
Description: Samples of shampoos, aqueous solutions and creams with and without addition of DCHB at 0.3% (w/w) have been stored at 25°C, in the light and in dark, for seven months and have been assessed for visual colour change and for DCHB content, by UV analysis, at regular intervals.

[4] = tested on: mixed culture of 7 strains of Gram negative bacteria; assay: Survivor plate count in shampoo formulation after challenge; type: cell-based; conditions: shampoo with 0.20% of 30% DCHB in propylene glycol (0.06% active DCHB)
Description: A shampoo formulation was prepared to the following formula: […]
Various additions were made to portions of this shampoo in sterile bottles under aseptic conditions, as follows: • 1. 0.20% of 30% DCHB in propylene glycol (0.06% active DCHB) • 2. 0.20% of 30% DCHB in propylene glycol + 0.05% citric acid • 3. 0.05% citric acid (control 1) • 4. No addition (control 2)
Each of these systems was inoculated with a mixed culture of 7 strains of Gram negative bacteria, at an initial inocullum level of 9.0x10^7 colony forming units per g. At 30 mins, 1 hour, 2 hours, 6 hours, 24 hours and 7 days after inoculation the total number of survivors in each sample portion were determined by serial dilution and plate counting; with the following results: […]

[5] = commercial shampoo + 0.3% of 30% DCHB in propylene glycol (0.09% active DCHB)

O=Cc1cc(Cl)c(O)c(Cl)c1 [DCHB, 3,5-Dichloro-4-hydroxybenzaldehyde]
Gram negative bacteria - Mixed Culture Colony forming units/g after: 1 day [1, 5]: <10 Colony forming units/g | Gram negative bacteria - Mixed Culture Colony forming units/g after: 7 days [1, 5]: <10 Colony forming units/g | Gram negative bacteria - Mixed Culture Colony forming units/g after: 14 days [1, 5]: <10 Colony forming units/g | Gram negative bacteria - Mixed Culture Colony forming units/g after: 28 days [1, 5]: <10 Colony forming units/g | Gram negative bacteria - Mixed Culture Colony forming units/g after: 3 hours ([1]; commercial shampoo + 0.3% of 30% DCHB in propylene glycol (0.09% active DCHB), initial inoculum 2.14 x 10^7 colony forming units per g): 9.0x10^6 Colony forming units/g | bactericidal effect against normally resistant gram negative bacteria ([1]; shampoo containing 0.3 % of 30 % DCHB in propylene glycol): rapid and satisfactory bactericidal effect | LD50 (Acute oral toxicity): > 5000 mg/kg | antimicrobial activity in the presence of proteins [2]: retaining antimicrobial activity | DCHB content, by UV analysis (UV absorption readings) [3]: no significant change | visual colour change [3]: no colour changes | Mixed culture - colony forming units/g after: 1 hour [4]: 3.0x10^6 colony forming units/g | Mixed culture - colony forming units/g after: 2 hours [4]: 6.6x10^5 colony forming units/g | Mixed culture - colony forming units/g after: 6 hours [4]: 7.0x10^5 colony forming units/g | Mixed culture - colony forming units/g after: 24 hours [4]: 8.4x10^4 colony forming units/g | Mixed culture - colony forming units/g after: 7 days [4]: 10 colony forming units/g | Mixed culture - colony forming units/g after: 30 mins ([4]; initial inoculum 9.0x10^7 colony forming units per g): 3.9x10^6 colony forming units/g

Reference: EP0193257A1, “Control of micro-organisms in water-containing compositions” (NIPA LABORATORIES, LTD., priority 1985, dated 1986)
